Values joined by “and” are separate entries in the source; they are usually repeats but may differ in a detail not shown here. Identical values can stand only once.
Key:
[1] = system: active uptake transport of gadoxetate into the liver; test: Simultaneous PBPK fitting of gadoxetate DCE-MRI data in control and rifampicin phases; format: in vivo, rat; settings: value (CV)
Description: DCE–MRI data generated using the 3D Fast Low Angle Shot RF-spoiled gradient echo sequence (FLASH) protocol in male Wistar-Han rats were used for assessing the PBPK IVIVE performances and for obtaining some of the PBPK parameters within the bottom-up and top-down approaches, respectively. The DCE–MRI data were acquired in a multicenter study at two magnetic field strengths, 4.7 and 7 T. Gadoxetate was administered at a dose of 25 μmol/kg, either alone or 1 h after IV administration of 10 mg/kg rifampicin. When gadoxetate was administered alone (control arm), 43 profiles of blood, spleen, and liver measured at a field strength of 4.7 T and 52 profiles of blood, spleen, and liver measured at 7 T were available. In the case of gadoxetate administered with rifampicin, 7 blood, spleen, and liver profiles at a field strength equal to 4.7 T and 6 at 7 T were available. All gadoxetate DCE–MRI data and study protocols are detailed in a companion paper (Hines et al. in submission).
The DCE–MRI data used in this study were reported as ΔR1. Therefore, the relationship between the compartmental concentrations represented by the PBPK model state variables and the ΔR1 measurements for the blood, liver, and spleen needed to be described. The linear relationship in eq 4 is not valid for ΔR1 of the liver, ΔR1,liv, because intracellular and extracellular tissue compartments have different relaxivities. To derive ΔR1,liv, a volume fraction-weighted mean of the contributions of the gadoxetate concentration in all the compartments used to model the liver was performed.[40] In the spleen, the entire distribution space was supposed to have the same relaxivity as blood and, therefore, eq 4 can be applied directly to derive spleen concentrations from ΔR1,spl. Concerning the blood, the blood value for r1 in Table 1 allows ΔR1,b to be directly related to the blood concentration. The relations between ΔR1,liv, ΔR1,spl, and ΔR1,b and the concentrations of the PBPK compartments are shown in eq 7. [drawing 7] 7 cspl,extr is the extracellular concentration in the spleen and Vspl,extr is the extracellular volume of the spleen and Vliv and Vspl are the whole volumes of liver and spleen. r1,liv,extr and r1,spl,extr were assumed to be equal to r1,b, as described in Hines et al.
In fact, each of the data are acquired during a time interval Δt, which was 57 s in the current dataset. To account for this characteristic when performing the parameter estimation, the residuals were calculated as the difference of the observed ΔR1 corresponding to a given time interval minus the mean of the simulated PBPK ΔR1 within the same interval, as explained in the Supporting Information, Section 4.
The extent of interaction with rifampicin was estimated by performing a simultaneous fitting of gadoxetate ΔR1 in the control and inhibitory phase. In this analysis, PS was considered the same for both phases, whereas the other parameters were separately estimated in the absence (CLactive and CLbiliary) and in the presence of rifampicin (CLactive,inh and CLbiliary,inh). CLbiliary,inh was considered to account for possible inhibition of Mrp2 in rat by rifampicin, as previously reported.[45] To understand the impact of the inclusion of the liver-imaging data on the parameter optimization, the simultaneous estimation was also performed considering only the blood data.
All the PBPK analyses were performed in MATLAB R2020a,[50] the ordinary differential equations were solved with the function “ode15s”, while the parameter optimization was performed with the function “lsqnonlin”. The uncertainty of the parameters estimate was evaluated with the case-bootstrap,[51] using 1000 samples.

[2] = renal clearance calculated as CLtotal × fe, rat weight 0.25 kg; fixed literature value; cited from earlier work
[3] = gadoxetate 1 h after rifampicin i.v. 10 mg/kg, simultaneous fit
[4] = simultaneous fit, 5-compartment liver model
[5] = with rifampicin, 5-compartment liver model

Which “CLactive, estimated value (with rifampicin) (CLactive,inh)” value [1, 3] does the source give for `CCOc1ccc(C[C@@H](CN(CCN(CC(=O)[O-])CC(=O)[O-])CC(=O)[O-])N(CC(=O)[O-])CC(=O)[O-])cc1.[Gd+3].[H+].[H+]` [gadoxetate] here?
The value was 0.095 (16.1%) L/h.

And the “CLbiliary, estimated value (with rifampicin) (CLbiliary,inh)” value [1, 3]?
Its value is 0.08 (16.7%) L/h.

And the “CLactive, estimated value (control)” value ([1]; simultaneous fit of control and rifampicin phases, blood, spleen, liver ΔR1)?
Its value is 2.38 (13.6%) L/h.

What about the “CLbiliary, estimated value (control)” value ([1]; simultaneous fit of control and rifampicin phases) of the same compound?
The value was 0.07 (3.1%) L/h.

What about the “PS, blood ΔR1 only” value ([1]; simultaneous fit using only blood ΔR1, both groups) of the same compound?
Its value is 2.07 (20 %) L/h.

And the “CLactive control group, blood ΔR1 only” value ([1]; simultaneous fit using only blood ΔR1)?
Its value is 1.82 (30 %) L/h and 1.82 L/h.

And the “CLactive control group, 5-compartment liver model” value [1, 4]?
Its value is 1.45 (7.4 %) L/h.

What about the “CLbiliary control group, 5-compartment liver model” value [1, 4] of the same compound?
The value was 0.07 (3.2 %) L/h.

And the “PS, 5-compartment liver model” value ([1]; simultaneous fit, both groups)?
Its value is 0.81 (7.2 %) L/h.

What about the “PS, estimated value” ([1]; simultaneous fit, same for both phases) of the same compound?
The value was 0.71 (5.7%) L/h.

And the “CLactive rifampicin group (CLactive,inh), blood ΔR1 only” value ([1]; with rifampicin 10 mg/kg, simultaneous fit using only blood ΔR1)?
The value was 0.29 (45 %) L/h and 0.29 L/h.

What about the “CLactive rifampicin group, 5-compartment liver model” value [1, 5] of the same compound?
The value was 0.065 (28.2 %) L/h.

And the “CLbiliary rifampicin group, 5-compartment liver model” value [1, 5]?
Its value is 0.07 (26.6 %) L/h.

And the CLr [2]?
The CLr was 0.17 L/h.

Reference: paper PMC8397403, “Physiologically Based Pharmacokinetic Modeling of Transporter-Mediated Hepatic Disposition of Imaging Biomarker Gadoxetate in Rats” (Molecular Pharmaceutics, 2021)
